According to ChEMBL document CHEMBL4732160, “Design and synthesis of 7-O-1,2,3-triazole hesperetin derivatives to relieve inflammation of acute liver injury in mice” (Eur J Med Chem, 2021):
Calls of active or inactive are those of the source. The rule behind the calls is not given here.

Tests used:
[1] = Cytotoxicity against mouse RAW264.7 cells assessed as cell viability at 40 uM measured after 24 hrs by MTT assay relative to control; assay type: cell-based
RAW264.7 [2] = assay: Antiinflammatory activity in mouse RAW264.7 cells assessed as inhibition of LPS-induced TNFalpha production at 10 uM preincubated for 1 hr followed by LPS stimulation and measured after 22 hrs by ELISA; assay type: functional, cell-based; details: time 23.0 hrs
RAW264.7 [3] = assay: Antiinflammatory activity in mouse RAW264.7 cells assessed as inhibition of LPS-induced IL6 production at 10 uM preincubated for 1 hr followed by LPS stimulation and measured after 22 hrs by ELISA; assay type: functional, cell-based; details: time 23.0 hrs
RAW264.7 [4] = assay: Antiinflammatory activity in mouse RAW264.7 cells assessed as inhibition of LPS-induced IL1beta production at 10 uM preincubated for 1 hr followed by LPS stimulation and measured after 22 hrs by ELISA; assay type: functional, cell-based; details: time 23.0 hrs
RAW264.7 [5] = assay: Antiinflammatory activity in mouse RAW264.7 cells assessed as inhibition of LPS-induced NO production preincubated for 2 hrs followed by LPS stimulation and measured after 24 hrs by Griess method; assay type: functional, cell-based
RAW264.7 [6] = assay: Antiinflammatory activity in mouse RAW264.7 cells assessed as inhibition of LPS-induced NO production at 10 uM preincubated for 2 hrs followed by LPS stimulation and measured after 24 hrs by Griess method relative to control; assay type: functional; details: time 26 hrs
RAW264.7 [7] = assay: Inhibition of LPS-induced NFkappaB activation in mouse RAW264.7 cells assessed as reduction in p65 nuclear translocation preincubated for 1 hr followed by LPS-stimulation and measured after 0.5 hrs by Western blot analysis; assay type: cell-based; details: dose 5-20 µM, time 1.5 hrs
RAW264.7 [8] = assay: Antiinflammatory activity in mouse RAW264.7 cells assessed as inhibition of LPS-induced IL1beta production preincubated for 1 hr followed by LPS stimulation and measured after 22 hrs by ELISA; assay type: functional, cell-based; details: dose 1.25-20 µM, time 23.0 hrs
RAW264.7 [9] = assay: Cytotoxicity against mouse RAW264.7 cells assessed as reduction in cell viability at 60 uM measured after 24 hrs by MTT assay; assay type: cell-based; details: raw264.7, 24 h
Mus musculus [10] = assay: Antiinflammatory activity in CCl4-induced C57BL/6J mouse model of liver injury assessed as reduction in liver damage at 50 to 200 mg/kg administered daily for 7 days followed by CCl4 addition and measured after 24 hrs by H and E staining based microscopic analysis; assay type: functional, organism-based; details: dose 50-200 mg/kg, time 8.0 day
RAW264.7 [11] = assay: Antiinflammatory activity in mouse RAW264.7 cells assessed as inhibition of LPS-induced COX2 expression preincubated for 1 hr followed by LPS stimulation and measured after 24 hrs by Western blot analysis; assay type: functional, cell-based; details: dose 5-20 µM, time 25.0 hrs
RAW264.7 [12] = assay: Antiinflammatory activity in mouse RAW264.7 cells assessed as inhibition of LPS-induced iNOS expression preincubated for 1 hr followed by LPS stimulation and measured after 24 hrs by Western blot analysis; assay type: functional, cell-based; details: dose 5-20 µM, time 25.0 hrs
RAW264.7 [13] = assay: Antiinflammatory activity in mouse RAW264.7 cells assessed as inhibition of LPS-induced TNFalpha production preincubated for 1 hr followed by LPS stimulation and measured after 22 hrs by ELISA; assay type: functional, cell-based; details: dose 1.25-20 µM, time 23.0 hrs
RAW264.7 [14] = assay: Antiinflammatory activity in mouse RAW264.7 cells assessed as inhibition of LPS-induced IL6 production preincubated for 1 hr followed by LPS stimulation and measured after 22 hrs by ELISA; assay type: functional, cell-based; details: dose 1.25-20 µM, time 23.0 hrs
RAW264.7 [15] = assay: Inhibition of LPS-induced NFkappaB activation in mouse RAW264.7 cells assessed as reduction in IkappaBalpha phosphorylation at 5 to 20 uM preincubated for 1 hr followed by LPS-stimulation and measured after 0.5 hrs by Western blot analysis; assay type: cell-based; details: dose 5-20 µM, time 1.5 hrs
Mus musculus [16] = assay: Antiinflammatory activity in CCl4-induced C57BL/6J mouse model of liver injury assessed as reduction in TNFalpha expression administered daily for 7 days followed by CCl4 addition and measured after 24 hrs by ELISA; assay type: functional, organism-based; details: dose 50-200 mg/kg, time 8.0 day
RAW264.7 [17] = assay: Antiinflammatory activity in mouse RAW264.7 cells assessed as inhibition of LPS-induced ROS production preincubated for 1 hr followed by LPS stimulation and measured after 24 hrs by DCFH-DA staining based flow cytometry; assay type: functional, cell-based; details: dose 2.5-10 µM, time 25.0 hrs
Mus musculus [18] = assay: Antiinflammatory activity in CCl4-induced C57BL/6J mouse model of liver injury assessed as reduction in IL1beta expression administered daily for 7 days followed by CCl4 addition and measured after 24 hrs by ELISA; assay type: functional, organism-based; details: dose 50-200 mg/kg, time 8.0 day
Mus musculus [19] = assay: Antiinflammatory activity in CCl4-induced C57BL/6J mouse model of liver injury assessed as reduction in ALT level administered daily for 7 days followed by CCl4 addition and measured after 24 hrs; assay type: functional, organism-based; details: dose 50-200 mg/kg, time 8.0 day
Mus musculus [20] = assay: Antiinflammatory activity in CCl4-induced C57BL/6J mouse model of liver injury assessed as reduction in IL6 expression administered daily for 7 days followed by CCl4 addition and measured after 24 hrs by ELISA; assay type: functional, organism-based; details: dose 50-200 mg/kg, time 8.0 day

Structure (SMILES)	viability at 24 h, 40 µM [1]	inhibition (RAW264.7 [2])	inhibition (RAW264.7 [3])	inhibition (RAW264.7 [4])	IC50 (RAW264.7 [5])	inhibition at 10 µM (RAW264.7 [6])	also measured
COc1ccc([C@@H]2CC(=O)c3c(O)cc(OCc4cn(Cc5ccccc5)nn4)cc3O2)cc1O	98%	Active	Active	Active	11 µM	49.8%	
COc1ccc([C@@H]2C/C(=N\O)c3c(O)cc(OCc4cn(CC5CC5)nn4)cc3O2)cc1O	86%	Active	Active	Active	6.32 µM	67%	
COc1ccc([C@@H]2CC(=O)c3c(O)cc(OCc4cn(C5CCCCC5)nn4)cc3O2)cc1O	124%	Active	Active	Active	15.6 µM	42.4%	
COc1ccc([C@@H]2CC(=O)c3c(O)cc(OCc4cn(CC(=O)c5ccccc5OC)nn4)cc3O2)cc1O	132%	Active	Active	Active	18.9 µM	22.8%	
COc1ccc([C@@H]2C/C(=N\O)c3c(O)cc(OCc4cn(Cc5ccccc5Cl)nn4)cc3O2)cc1O	86%	Active	Active	Active	13.3 µM	33%	
COc1ccc([C@@H]2C/C(=N\O)c3c(O)cc(OCc4cn(C5CCCC5)nn4)cc3O2)cc1O	112%	Active	Active	Active	6.88 µM	63.7%	
COc1ccc([C@@H]2CC(=O)c3c(O)cc(OCc4cn(Cc5cccc(C#N)c5)nn4)cc3O2)cc1O	56%	Active	Active	Active	18 µM	32.9%	
COc1ccc([C@@H]2CC(=O)c3c(O)cc(OCc4cn(CCCO)nn4)cc3O2)cc1O	121%	Active	Active	Active	16.7 µM	32.8%	
CCCCn1cc(COc2cc(O)c3c(c2)O[C@H](c2ccc(OC)c(O)c2)CC3=O)nn1	118%	Active	Active	Active	13.9 µM	49.9%	
COc1ccc([C@@H]2CC(=O)c3c(O)cc(OCc4cn(CCO)nn4)cc3O2)cc1O	112%	Active	Active	Active	17.8 µM	24.7%	
CCCn1cc(COc2cc(O)c3c(c2)O[C@H](c2ccc(OC)c(O)c2)C/C3=N\O)nn1	114%	Active	Active	Active	2.34 µM	67.5%	inhibition (RAW264.7 [7]): Dose-dependent effect; inhibition (RAW264.7 [8]): Dose-dependent effect; Activity (RAW264.7 [9]): Non-Toxic; Activity (Mus musculus [10]): Active; inhibition (RAW264.7 [11]): Dose-dependent effect; inhibition (RAW264.7 [12]): Dose-dependent effect; inhibition (RAW264.7 [13]): Dose-dependent effect; inhibition (RAW264.7 [14]): Dose-dependent effect; inhibition (RAW264.7 [15]): Active; Activity (Mus musculus [16]): Dose-dependent effect; inhibition (RAW264.7 [17]): Dose-dependent effect; Activity (Mus musculus [18]): Dose-dependent effect; Activity (Mus musculus [19]): Dose-dependent effect; Activity (Mus musculus [20]): Dose-dependent effect
COc1ccc([C@@H]2CC(=O)c3c(O)cc(OCc4cn(Cc5ccccc5C#N)nn4)cc3O2)cc1O	114%	Active	Active	Active	14.6 µM	43.6%	
COc1ccc([C@@H]2CC(=O)c3c(O)cc(OCc4cn(Cc5ccccc5F)nn4)cc3O2)cc1O	74%	Active	Active	Active	7.32 µM	63.3%	
COc1ccc([C@@H]2CC(=O)c3c(O)cc(OCc4cn(CC5CC5)nn4)cc3O2)cc1O	87%	Active	Active	Active	11.9 µM	48.8%	
COc1ccc([C@@H]2CC(=O)c3c(O)cc(O)cc3O2)cc1O [HESPERETIN]	121%	Active	Active	Active	48.6 µM	18.4%	
COc1ccc([C@@H]2CC(=O)c3c(O)cc(OCc4cn(Cc5ccc(F)cc5)nn4)cc3O2)cc1O	101%	Active	Active	Active	15.1 µM	41.4%	
